According to patent US8889878B2, “Haloalky-substituted amides as insecticides and acaricides” (Bayer CropScience AG, priority 2009, dated 2014):

Experiments:
Boophilus microplus [1] = assay: Boophilus microplus test (BOOPMI injection), Example 1; format: in vivo; details: application rate 20 μg/animal, injected into abdomen, after 7 days
Method: Boophilus microplus Test (BOOPMI Injection) • Solvent: dimethyl sulphoxide To prepare an active ingredient formulation, 10 mg of active ingredient are mixed with 0.5 ml of solvent and the concentrate is diluted with water to the desired concentration. The active ingredient solution was injected into the abdomen (Boophilus microplus), and the animals were transferred to dishes and stored in a climate-controlled room. The efficacy was assessed by the number of fertile eggs laid. After 7 days, the efficacy in % is determined. 100% means that no tick laid fertile eggs.

[2] = test system: mustard beetle (Phaedon cochleariae); assay: Phaedon test (PHAECO spray treatment), Example 7; format: in vivo; details: application rate 20 g/ha, china cabbage leaf discs sprayed, after 7 days
In short: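 Spray formulation (acetone/DMF with alkylaryl polyglycol ether, diluted in emulsifier-containing water) applied to Chinese cabbage leaf discs, which were dried and then stocked with mustard beetle larvae. Efficacy scored at 7 days as % larvae killed (100% all, 0% none).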

Boophilus microplus [3] = assay: Boophilus microplus test (BOOPMI injection), Example 11; format: in vivo; details: application rate 20 μg/animal, injected into abdomen, after 7 days; for pest or weed control at 0.02 mg: Rhipicephalus microplus, 168 h, read-out: efficacy in % (fertile eggs laid)
In short: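 Adult ticks injected in the abdomen with compound diluted in DMSO, then held in a climate-controlled room. Efficacy in % determined after 7 days from fertile eggs laid; 100% means no tick laid fertile eggs.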

Ctenocephalides felis [4] = assay: Ctenocephalides felis oral (CTECFE), Example 12; format: in vivo; details: application rate 100 ppm in citrated cow's blood, after 2 days
Method: (§1) Ctenocephalides felis Oral ([…]) • Solvent: 1 part by weight of dimethyl sulphoxide For the purpose of preparing an appropriate active ingredient formulation, 10 mg of active ingredient are mixed with 0.5 ml of dimethyl sulphoxide. A portion of the concentrate is diluted with citrated cow's blood and the desired concentration is established. About 20 unfed adult fleas (Ctenocephalides felis) are placed into a chamber sealed at the top and bottom with gauze. A metal cylinder with its lower end sealed with Parafilm is placed onto the chamber. The cylinder contains the blood-active ingredient preparation, which can be consumed by the fleas through the Parafilm membrane. After 2 days, the kill rate in % is determined. 100% means that all fleas were killed; 0% means that no fleas were killed.

[5] = logP by HPLC on reverse-phase column (EEC Directive 79/831 Annex V.A8); format: physicochemical; details: for logP: HPLC-MS; for chromatographic logP: reverse-phase C18 HPLC column, pH 2.7, HPLC, C18 reverse phase, 43° C., acidic range pH 2.7, calibration with alkan-2-ones
Method: The logP values reported in the above Tables and Preparation Examples were determined according to EEC Directive 79/831 Annex V.A8 by HPLC (High Performance Liquid Chromatography) on a reverse-phase column (C18). Temperature 43° C.

[6] = test system: green peach aphid (Myzus persicae); assay: Myzus test (MYZUPE spray treatment), Example 5; format: in vivo; details: application rate 20 g/ha, china cabbage leaf discs sprayed, after 6 days
Method: Myzus Test (MYZUPE Spray Treatment)
• Solvent: 78 parts by weight of acetone • 1.5 parts by weight of dimethylformamide • Emulsifier: 0.5 part by weight of alkylaryl polyglycol ether
To prepare an active ingredient formulation, 1 part by weight of active ingredient is mixed with the stated amounts of solvent and emulsifier, and the concentrate is diluted with emulsifier-containing water to the desired concentration. Leaf discs from china cabbage (Brassica pekinensis) infested by all stages of the green peach aphid (Myzus persicae) are sprayed with an active ingredient formulation of the desired concentration.
After 6 days, the efficacy in % is determined. 100% means that all aphids were killed; 0% means that no aphids were killed.

[7] = test system: red spider mite (Tetranychus urticae); assay: Tetranychus test, OP-resistant (TETRUR spray treatment), Example 8; format: in vivo; details: application rate 20 g/ha, common bean leaf discs sprayed, after 6 days
In short: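 Bean (Phaseolus vulgaris) leaf discs carrying all stages of OP-resistant Tetranychus urticae sprayed with compound in acetone/DMF with emulsifier, diluted in water to the test concentration. Mortality scored after 6 days as % efficacy (100% = all mites killed).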

[8] = test system: Boophilus microplus females of the SP-resistant Parkhurst strain; assay: Boophilus microplus test (DIP), Example 10; format: in vivo; details: application rate 100 ppm, after 7 days
Method: Boophilus microplus Test (DIP)
Test animals: adult engorged Boophilus microplus females of the SP-resistant Parkhurst strain • Solvent: dimethyl sulphoxide
10 mg of active ingredient are dissolved in 0.5 ml of dimethyl sulphoxide. For the purpose of preparing a suitable formulation, the active ingredient solution is diluted with water to the concentration desired in each case.
This active ingredient formulation is pipetted into tubes. 8-10 ticks are transferred into a further tube with holes. The tube is immersed into the active ingredient formulation, and all ticks are completely wetted. After the liquid has run out, the ticks are transferred onto filter discs in plastic dishes and stored in a climate-controlled room. The efficacy is assessed after 7 days by the number of fertile eggs laid. Eggs whose fertility is not outwardly visible are stored in glass tubes in a climate-controlled cabinet until the larvae hatch. Efficacy of 100% means that none of the ticks has laid any fertile eggs.

[9] = test system: green peach aphid (Myzus persicae); assay: Myzus test (MYZUPE spray treatment), Example 17; format: in vivo; details: china cabbage leaf discs sprayed, after 6 days
In short: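 Chinese cabbage leaf discs infested with all aphid stages were sprayed with compound formulated in acetone/dimethylformamide plus alkylaryl polyglycol ether emulsifier, diluted in emulsifier-containing water. Mortality read after 6 days as % efficacy (100% all killed, 0% none killed).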

[10] = test system: armyworm (Spodoptera frugiperda); assay: Spodoptera frugiperda test (SPODFR spray treatment), Example 15; format: in vivo; details: maize leaf discs sprayed, after 7 days
In short: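 Maize leaf discs sprayed with active ingredient in acetone/DMF with alkylaryl polyglycol ether emulsifier, diluted in water, then populated with caterpillars after drying. Efficacy in % after 7 days: 100% all caterpillars killed, 0% none.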

Ctenocephalides felis [11] = assay: Ctenocephalides felis oral (CTECFE), Example 2; format: in vivo; details: application rate 20 ppm in citrated cow's blood, after 2 days
Method: as §1, with “an” for “an appropriate”, “concentrate was” for “concentrate is”, “concentration was prepared.” for “concentration is established. About”

Lucilia cuprina larvae = assay: Lucilia cuprina test (LUCICU), Example 3; format: in vivo; details: application rate 20 ppm, treated horsemeat, after 2 days
Method: Lucilia cuprina Test (LUCICU) • Solvent: dimethyl sulphoxide To prepare an active ingredient formulation, 10 mg of active ingredient are mixed with 0.5 ml of dimethyl sulphoxide, and the concentrate is diluted with water to the desired concentration. Vessels containing horsemeat which has been treated with the active ingredient formulation of the desired concentration are populated with Lucilia cuprina larvae. After 2 days, the kill rate in % is determined. 100% means that all larvae were killed; 0% means that no larvae were killed.

[12] = test system: mustard beetle (Phaedon cochleariae); assay: Phaedon test (PHAECO spray treatment), Example 16; format: in vivo; details: application rate 500 g/ha, china cabbage leaf discs sprayed, after the desired time; for pest or weed control at 500 g/ha: Phaedon cochleariae, foliar, read-out: efficacy in %
In short: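 Chinese cabbage leaf discs sprayed with acetone/DMF-emulsifier formulation of active ingredient diluted in emulsifier-containing water, then infested with mustard beetle larvae after drying. Efficacy scored as % larval kill (100% = all killed, 0% = none) after the chosen time.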

Musca domestica adults = assay: Musca domestica test (MUSCDO), Example 14; format: in vivo; details: application rate 100 ppm, treated sponge, after 2 days
Method: Musca domestica Test (MUSCDO) • Solvent: dimethyl sulphoxide To prepare an appropriate active ingredient formulation, 10 mg of active ingredient are mixed with 0.5 ml of dimethyl sulphoxide, and the concentrate is diluted with water to the desired concentration. Vessels containing a sponge which has been treated with the active ingredient formulation of the desired concentration are populated with Musca domestica adults. After 2 days, the kill rate in % is determined. 100% means that all flies were killed; 0% means that no flies were killed.

[13] = test system: red spider mite (Tetranychus urticae); assay: Tetranychus test; OP-resistant (TETRUR spray treatment), Example 18; format: in vivo; details: application rate 500 g/ha, common bean leaf discs sprayed, after 6 days
Method: Tetranychus Test; OP-Resistant (TETRUR Spray Treatment)
• Solvent: 78.0 parts by weight of acetone • 1.5 parts by weight of dimethylformamide • Emulsifier: 0.5 part by weight of alkylaryl polyglycol ether
To prepare an appropriate active ingredient formulation, 1 part by weight of active ingredient is mixed with the stated amounts of solvent and emulsifier, and the concentrate is diluted with emulsifier-containing water to the desired concentration. Leaf discs from the common bean (Phaseolus vulgaris) infested by all stages of the red spider mite (Tetranychus urticae) are sprayed with an active ingredient formulation of the desired concentration.
After 6 days, the efficacy in % is determined. 100% means that all spider mites were killed; 0% means that no spider mites were killed.

| Structure (SMILES) | efficacy in % [2] | efficacy in % (fertile eggs laid) (Boophilus microplus [3]) | kill rate in % (efficacy) (Ctenocephalides felis [4]) | logP [5] | efficacy in % [6] | efficacy in % [7] | further results |
| --- | --- | --- | --- | --- | --- | --- | --- |
| Cn1cnc(CNC(=O)c2ccc(/C=C/C(=O)NC(c3cccc(C(F)(F)F)c3)C(F)(F)F)cc2C(F)(F)F)c1 (centres unmarked) [Ia-76] | 100% | 100% | 80% | HPLC-MS: logP = 1.72; mass | – | – | efficacy in % (fertile eggs laid) (Boophilus microplus [1]): 100% |
| CC(CF)NC(=O)c1ccc(/C=C/C(=O)NC(c2cccc(C(F)(F)F)c2)C(F)(F)F)cc1Cl (centres unmarked) [Ia-112] | 100% | 100% | – | HPLC-MS: logP = 3.25 mass | 100% | 100% | efficacy in % (fertile eggs laid) [8]: 100% |
| Cc1cc(/C=C/C(=O)NC(c2cccc(C(F)(F)F)c2)C(F)(F)F)ccc1C(=O)NCCC1CC1 (centres unmarked) [Ia-115] | 100% | – | – | HPLC-MS: logP = 3.61 mass | 90% | 90% | efficacy in % ([9]; application rate 100 g/ha): 100% |
| O=C(/C=C/c1ccc(C(=O)NC(CF)CF)c(Cl)c1)NC(c1cccc(C(F)(F)F)c1)C(F)(F)F (centres unmarked) [Ia-155] | – | 100% | – | HPLC-MS: logP = 3.36; mass | – | – | efficacy in % (fertile eggs laid) [8]: 90%; efficacy in % ([10]; application rate 100 g/ha): 83%; efficacy in % ([9]; application rate 100 g/ha): 100% |
| O=C(/C=C/c1ccc(C(=O)NCc2ccccn2)c(Br)c1)NC(c1cccc(C(F)(F)F)c1)C(F)(F)F (centres unmarked) [Ia-41] | 100% | 100% | – | HPLC-MS: logP = 2.76; mass | 100% | 100% | efficacy in % (fertile eggs laid) (Boophilus microplus [1]): 100%; kill rate in % (efficacy) (Ctenocephalides felis [11]): 100%; kill rate in % (efficacy) (Lucilia cuprina larvae): 90%; efficacy in % ([9]; application rate 500 g/ha): 90% |
| O=C(/C=C/c1cccc(NC(=O)c2cccnc2Cl)c1)NC(c1cccc(C(F)(F)F)c1)C(F)(F)F (centres unmarked) [Ia-5, 2-Chloro-N-{3-[(1E)-3-oxo-3-({2,2,2-trifluoro-1-[3-(trifluoromethyl)phenyl]ethyl}amino)prop-1-en-1-yl]phenyl}nicotinamide] | – | – | 80% | – | – | – | efficacy in % (fertile eggs laid) (Boophilus microplus [1]): 100%; pest or weed control at 0.02 mg (Boophilus microplus [3]): 100%; pest or weed control at 500 g/ha [12]: 100%; chromatographic logP [5]: 3.39 |
| C#CC(C)(C)NC(=O)c1ccc(/C=C/C(=O)NC(c2cccc(C(F)(F)F)c2)C(F)(F)F)cc1C(F)(F)F (centres unmarked) [Ia-146] | – | 100% | 90% | HPLC-MS: logP = 3.8; mass | – | – | efficacy in % ([10]; application rate 100 g/ha): 100% |
| Cc1cc(/C=C/C(=O)NC(c2cccc(C(F)(F)F)c2)C(F)(F)F)ccc1C(=O)NCC(F)(F)F (centres unmarked) [Ia-18] | – | 100% | 98% | HPLC-MS: logP = 3.56; mass | – | – | kill rate in % (efficacy) (Musca domestica adults): 90% |
| CC(CF)NC(=O)c1ccc(/C=C/C(=O)NC(c2cccc(C(F)(F)F)c2)C(F)(F)F)cc1C(F)(F)F (centres unmarked) [Ia-75, N-(1-Fluoropropan-2-yl)-4-[(1E)-3-oxo-3-({2,2,2-trifluoro-1-[3-(trifluoromethyl)phenyl]-ethyl}amino)prop-1-en-1-yl]-2-(trifluoromethyl)benzamide] | 100% | – | – | – | 80% | 100% | pest or weed control at 0.02 mg (Boophilus microplus [3]): 100%; pest or weed control at 500 g/ha ([10]; Spodoptera frugiperda, foliar, 168 h, application rate 500 g/ha, read-out: efficacy in %): 100%; pest or weed control at 500 g/ha [12]: 100%; pest or weed control at 500 g/ha ([13]; Tetranychus urticae, foliar, 144 h, read-out: efficacy in %): 100%; chromatographic logP [5]: 3.37 |
| CC(NC(=O)c1ccc(/C=C/C(=O)NC(c2cccc(C(F)(F)F)c2)C(F)(F)F)cc1Cl)C1CC1 (centres unmarked) [Ia-114] | 100% | 100% | – | HPLC-MS: logP = 3.68 mass | – | 100% | efficacy in % (fertile eggs laid) [8]: 85% |
| Cc1cc(/C=C/C(=O)NC(c2cccc(C(F)(F)F)c2)C(F)(F)F)ccc1C(=O)NCC(F)F (centres unmarked) [Ia-100] | 100% | – | – | HPLC-MS: logP = 3.13 mass | – | 80% | efficacy in % ([10]; application rate 500 g/ha): Ia-100%; efficacy in % [12]: Ia-100%; efficacy in % [13]: Ia-100% |
